The values that follow come from US6340764B1, “Reference compound for use in the analysis of levosimendan batches” (Orion Corporation, priority 1998, dated 2002).

The series relates to bacterial mutagenity test (Ames test). The series can be described thus: bacterial mutagenity test (Ames test). Format: cell-based.

For the compound `CC1CC(=O)NN=C1c1ccc(NN=C(C#N)C#N)cc1` (single isomer, unassigned; (-)) [levosimendan, (−)-enantiomer of [[4-(1,4,5,6-tetrahydro-4-methyl-6-oxo-3-pyridazinyl)phenyl]hydrazono]propanedinitrile], the “genotoxic / mutagenic properties in the bacterial mutagenity test (Ames test)” value is recorded as “show potential genotoxic properties occasionally”.
With `CC1CC(=O)OC1(N=[N+]=[N-])c1ccc(NN=C(C#N)C#N)cc1` (centres unmarked) [Compound (I), [[4-(2-azido-3-methyl-5-oxotetrahydrofuran-2-yl)phenyl]hydrazono]propanedinitrile] the entry was “potent mutagen”.
